Assay results from patent publication US9669003B2, “Use of flavone and flavanone derivatives in preparation of sedative and hypnotic drugs” (priority 2012, dated 2017).
Marks after values point to notes of the source that are not given here.

Legend:
Format in all cases: in vivo
[1] = test system: Kunming mice; assay: Influence on autonomic activity of normal mice (ZIL-2 mice autonomic activity meter, counts within 10 min); conditions: intragastric, x ± s; for Times of activities in 1 h after drug administration/10 min: 1 h after administration; for Times of activities in 2 h after drug administration/10 min: 2 h after administration; for Times of activities in 24 h after drug administration/10 min: 24 h after administration
Summary of the method: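 Activity counts during a 10-min window were taken at 1, 2 and 24 h after dosing in groups of 10 mixed-sex Kunming mice. Compounds were given in 0.5% CMC-Na at 25, 50 or 100 mg/kg. Statistics used Levene's homogeneity test, ANOVA and Dunnett's multiple comparisons.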

[2] = test system: Kunming mice; assay: Influence on hypnosis effect with pentobarbital sodium doses below the threshold (25 mg/kg i.p.); conditions: pentobarbital sodium 25 mg/kg i.p. 60 min later, sleep observed in 30 min, n = 10
Summary of the method: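 Percentage of mice sleeping within 30 min after subthreshold pentobarbital sodium (25 mg/kg i.p.), defined by loss of righting reflex over 1 min, analysed by χ2. Compound in 0.5% CMC-Na given intragastrically at 25/50/100 mg/kg 60 min before; groups of 10 Kunming mice, both sexes.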

[3] = test system: Kunming mice; assay: Influence on hypnosis effect with pentobarbital sodium doses at the threshold (50 mg/kg i.p.); conditions: pentobarbital sodium 50 mg/kg i.p. 60 min later, x ± s, n = 10
Summary of the method: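 Pentobarbital sodium (0.3%, 50 mg/kg i.p.) injected 60 min after a single intragastric dose (25, 50, 100 mg/kg, 0.5% CMC-Na vehicle) in Kunming mice, 10 per group, sexes balanced. Onset and length of sleep (righting reflex lost over 1 min) analysed by ANOVA; sleeping incidence by χ2 test.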

[4] = test drug 25 mg/kg intragastric single dose
[5] = test drug 50 mg/kg intragastric single dose
[6] = test drug 100 mg/kg intragastric single dose
[7] = 25 mg/kg intragastric single dose
[8] = 50 mg/kg intragastric single dose
[9] = 100 mg/kg intragastric single dose

## COc1ccc(O)cc1-c1cc(=O)c2c(O)cc(OC)c(OC)c2o1 [Example 12, 5,5′-dihydroxyl-7,8,2′-trimethoxyl-flavone]
[1]; 25 mg/kg, n = 10
  Times of activities in 1 h after drug administration/10 min: 255.9 ± 39.8 /10 min
  Times of activities in 2 h after drug administration/10 min: 284.2 ± 41.7 /10 min
  Times of activities in 24 h after drug administration/10 min: 303.1 ± 69.1 /10 min
[1]; 50 mg/kg, n = 10
  Times of activities in 1 h after drug administration/10 min: 179.5 ± 51.4 /10 min
  Times of activities in 2 h after drug administration/10 min: 168.5 ± 54.3 /10 min
  Times of activities in 24 h after drug administration/10 min: 317.9 ± 55.3 /10 min
[1]; 100 mg/kg, n = 10
  Times of activities in 1 h after drug administration/10 min: 153.7 ± 48.4 /10 min
  Times of activities in 2 h after drug administration/10 min: 135.9 ± 48.7 /10 min
  Times of activities in 24 h after drug administration/10 min: 302.1 ± 89.0 /10 min
[2]; [4]
  Number of sleeping animals: 5
  rate of sleeping (%): 50** %
[2]; [5]
  Number of sleeping animals: 8
  rate of sleeping (%): 80*** %
[2]; [6]
  Number of sleeping animals: 8
  rate of sleeping (%): 80*** %
[3]; [7]
  duration of sleep: 22.71 ± 26.17 min
  time to sleep: 5.43 ± 2.05 min
[3]; [8]
  duration of sleep: 28.68 ± 27.56 min
  time to sleep: 5.01 ± 2.00 min
[3]; [9]
  duration of sleep: 38.55 ± 23.27 min
  time to sleep: 4.25 ± 1.16 min

## COc1cc(-c2cc(=O)c3c(OC)c(OC)c(OC)cc3o2)cc(OC)c1OC [Example 13, 5,6,7,3′,4′,5′-hexamethoxyl-flavone]
[1]; 25 mg/kg, n = 10
  Times of activities in 1 h after drug administration/10 min: 293.2 ± 47.1 /10 min
  Times of activities in 2 h after drug administration/10 min: 278.5 ± 42.8 /10 min
  Times of activities in 24 h after drug administration/10 min: 302.8 ± 67.2 /10 min
[1]; 50 mg/kg, n = 10
  Times of activities in 1 h after drug administration/10 min: 280.7 ± 61.3 /10 min
  Times of activities in 2 h after drug administration/10 min: 278.6 ± 47.5 /10 min
  Times of activities in 24 h after drug administration/10 min: 309.2 ± 81.3 /10 min
[1]; 100 mg/kg, n = 10
  Times of activities in 1 h after drug administration/10 min: 247.2 ± 35.6 /10 min
  Times of activities in 2 h after drug administration/10 min: 225.3 ± 44.2 /10 min
  Times of activities in 24 h after drug administration/10 min: 291.5 ± 69.5 /10 min
[2]; [4]
  Number of sleeping animals: 4
  rate of sleeping (%): 40* %
[2]; [5]
  Number of sleeping animals: 6
  rate of sleeping (%): 60** %
[2]; [6]
  Number of sleeping animals: 7
  rate of sleeping (%): 70** %
[3]; [7]
  duration of sleep: 39.25 ± 17.25 min
  time to sleep: 4.26 ± 1.23 min
[3]; [8]
  duration of sleep: 57.33 ± 29.41 min
  time to sleep: 3.93 ± 1.15 min
[3]; [9]
  duration of sleep: 59.23 ± 25.36 min
  time to sleep: 3.83 ± 1.21 min

## CC=Cc1cc(I)cc2c1OC(c1cccc(C(=O)O)c1)CC2=O (stereo not drawn) [Example 60]
[1]; 25 mg/kg, n = 10
  Times of activities in 1 h after drug administration/10 min: 243.8 ± 73.8 /10 min
  Times of activities in 2 h after drug administration/10 min: 238.9 ± 78.3 /10 min
  Times of activities in 24 h after drug administration/10 min: 340.4 ± 76.8 /10 min
[1]; 50 mg/kg, n = 10
  Times of activities in 1 h after drug administration/10 min: 143.3 ± 64.7 /10 min
  Times of activities in 2 h after drug administration/10 min: 131.8 ± 62.3 /10 min
  Times of activities in 24 h after drug administration/10 min: 327.6 ± 75.3 /10 min
[1]; 100 mg/kg, n = 10
  Times of activities in 1 h after drug administration/10 min: 116.9 ± 33.8 /10 min
  Times of activities in 2 h after drug administration/10 min: 109.9 ± 39.2 /10 min
  Times of activities in 24 h after drug administration/10 min: 293.4 ± 84.9 /10 min
[2]; [4]
  Number of sleeping animals: 5
  rate of sleeping (%): 50** %
[2]; [5]
  Number of sleeping animals: 6
  rate of sleeping (%): 60** %
[2]; [6]
  Number of sleeping animals: 9
  rate of sleeping (%): 90*** %
[3]; [7]
  duration of sleep: 46.64 ± 22.53 min
  time to sleep: 4.13 ± 1.59 min
[3]; [8]
  duration of sleep: 58.37 ± 18.85 min
  time to sleep: 3.62 ± 1.74 min
[3]; [9]
  duration of sleep: 73.03 ± 19.21 min
  time to sleep: 2.32 ± 1.17 min

## COc1ccc(C2CC(=O)c3c(cc(OC)c(OC)c3OC)O2)cc1 (stereo not drawn) [Example 65, 5,6,7,4′-tetra methoxyl-flavanone]
[1]; 25 mg/kg, n = 10
  Times of activities in 1 h after drug administration/10 min: 280.5 ± 47.4 /10 min
  Times of activities in 2 h after drug administration/10 min: 279.4 ± 43.5 /10 min
  Times of activities in 24 h after drug administration/10 min: 291.2 ± 83.6 /10 min
[1]; 50 mg/kg, n = 10
  Times of activities in 1 h after drug administration/10 min: 174.3 ± 49.2 /10 min
  Times of activities in 2 h after drug administration/10 min: 185.5 ± 56.6 /10 min
  Times of activities in 24 h after drug administration/10 min: 289.0 ± 89.4 /10 min
[1]; 100 mg/kg, n = 10
  Times of activities in 1 h after drug administration/10 min: 127.5 ± 36.5 /10 min
  Times of activities in 2 h after drug administration/10 min: 132.6 ± 44.6 /10 min
  Times of activities in 24 h after drug administration/10 min: 280.7 ± 92.3 /10 min
[2]; [4]
  Number of sleeping animals: 4
  rate of sleeping (%): 40* %
[2]; [5]
  Number of sleeping animals: 6
  rate of sleeping (%): 60** %
[2]; [6]
  Number of sleeping animals: 7
  rate of sleeping (%): 70** %
[3]; [7]
  duration of sleep: 31.48 ± 22.67 min
  time to sleep: 5.65 ± 1.83 min
[3]; [8]
  duration of sleep: 39.63 ± 20.19 min
  time to sleep: 3.93 ± 1.39 min
[3]; [9]
  duration of sleep: 57.62 ± 24.57 min
  time to sleep: 3.92 ± 1.40 min

## COc1ccc(C2CC(=O)c3c(O)c(OC)c(OC)c(OC)c3O2)cc1OC (stereo not drawn) [Example 43, 5-hydroxyl-6,7,8,3′,4′-penta methoxyl-flavanone]
[1]; 25 mg/kg, n = 10, 25 mg/kg
  Times of activities in 1 h after drug administration/10 min: 293.7 ± 41.4 /10 min
  Times of activities in 2 h after drug administration/10 min: 306.3 ± 51.6 /10 min
  Times of activities in 24 h after drug administration/10 min: 324.7 ± 71.3 /10 min
[1]; 50 mg/kg, n = 10, 50 mg/kg
  Times of activities in 1 h after drug administration/10 min: 254.1 ± 42.7 /10 min
  Times of activities in 2 h after drug administration/10 min: 252.6 ± 41.6 /10 min
  Times of activities in 24 h after drug administration/10 min: 313.7 ± 68.5 /10 min
[1]; 100 mg/kg, n = 10, 100 mg/kg
  Times of activities in 1 h after drug administration/10 min: 265.4 ± 49.2 /10 min
  Times of activities in 2 h after drug administration/10 min: 258.1 ± 32.7 /10 min
  Times of activities in 24 h after drug administration/10 min: 294.1 ± 72.3 /10 min
[2]; [4]
  Number of sleeping animals: 5
  rate of sleeping (%): 50** %
[2]; [5]
  Number of sleeping animals: 7
  rate of sleeping (%): 70** %
[2]; [6]
  Number of sleeping animals: 8
  rate of sleeping (%): 80*** %
[3]; [7]
  duration of sleep: 32.33 ± 23.16 min
  time to sleep: 4.88 ± 1.91 min
[3]; [8]
  duration of sleep: 59.98 ± 18.43 min
  time to sleep: 4.19 ± 1.74 min
[3]; [9]
  duration of sleep: 63.07 ± 33.12 min
  time to sleep: 3.85 ± 1.76 min
